Measured values taken from ChEMBL document CHEMBL4190314, “Quinoline hybrids and their antiplasmodial and antimalarial activities” (Eur J Med Chem, 2017).
In brackets after ≈: the same amount, converted by molar mass.

Legend:
Plasmodium falciparum [1] = assay: Antimalarial activity against chloroquine-sensitive Plasmodium falciparum 3D7 infected in human erythrocytes after 72 hrs by SYBR Green-1 staining based fluorescence assay; type: functional, organism-based; details: 3D7, 72 h
[2] = Elimination half life in FVB mouse plasma at 5 mg/kg, iv administered as single dose; type: ADME, organism-based; details: read-out: beta t1/2 (converted)
Plasmodium falciparum [3] = assay: Antimalarial activity against […] Plasmodium falciparum D6; type: functional
[4] = Permeability from apical to basolateral side in MDCK cells; type: ADME, cell-based, Canis lupus familiaris; details: dog, read-out: permeability
Plasmodium falciparum [5] = assay: Antimalarial activity against multiple drug-resistant Plasmodium falciparum C235; type: functional
[6] = Drug uptake in FVB mouse brain at 5 mg/kg, iv administered as single dose by UPLC-MS/MS based equilibrium dialysis method; type: ADME, organism-based; details: in vivo
Plasmodium falciparum [7] = assay: Antimalarial activity against chloroquine-sensitive Plasmodium falciparum 3D7 infected in human type A+ erythrocytes after 48 hrs by [3H]-hypoxanthine incorporation assay; type: functional, organism-based
Plasmodium falciparum [8] = assay: Antimalarial activity against chloroquine-resistant Plasmodium falciparum K1 infected in human type A+ erythrocytes after 48 hrs by [3H]-hypoxanthine incorporation assay; type: functional, organism-based
Plasmodium falciparum [9] = assay: Antimalarial activity against Plasmodium falciparum 3D7 infected in human erythrocytes after 72 hrs by SYBR Green-1 staining based fluorescence assay; type: functional, organism-based; details: 3D7, 72 h
Plasmodium falciparum [10] = assay: Antimalarial activity against chloroquine-sensitive Plasmodium falciparum D6 infected in human red blood cells assessed as reduction in parasitic LDH activity by Malstat reagent based spectrophotometric method; type: functional, organism-based
Plasmodium falciparum [11] = assay: Antimalarial activity against chloroquine-resistant Plasmodium falciparum W2 infected in human red blood cells assessed as reduction in parasitic LDH activity by Malstat reagent based spectrophotometric method; type: functional, organism-based
Plasmodium falciparum [12] = assay: Antimalarial activity against chloroquine-sensitive Plasmodium falciparum 3D7 infected in human type A+ erythrocytes after 24 hrs by [3H]-hypoxanthine incorporation assay; type: functional, organism-based
Plasmodium falciparum [13] = assay: Antimalarial activity against chloroquine-resistant Plasmodium falciparum W2 infected in human type A+ erythrocytes after 24 hrs by [3H]-hypoxanthine incorporation assay; type: functional, organism-based
Plasmodium falciparum [14] = assay: microbe, parasite or virus in culture; details: D10, 24 h
Description: Antimalarial activity against chloroquine-sensitive Plasmodium falciparum D10 after 24 hrs by [G-3H]-hypoxanthine incorporation assay

Plasmodium falciparum [15] = assay: microbe, parasite or virus in culture; details: K1, 24 h
Description: Antimalarial activity against chloroquine-resistant Plasmodium falciparum K1 after 24 hrs by [G-3H]-hypoxanthine incorporation assay

Plasmodium falciparum [16] = assay: Antimalarial activity against chloroquine-sensitive Plasmodium falciparum 3D7; details: 3D7, read-out: ED50
Plasmodium falciparum [17] = assay: Antimalarial activity against chloroquine-resistant Plasmodium falciparum K1; type: functional; details: read-out: ED50 (the source's name)

Structure (SMILES): C=C[C@H]1CN2CC[C@H]1C[C@H]2[C@H](OC(=O)[C@H](CC(C)C)NC(=O)c1cn(CC)c2nc(C)ccc2c1=O)c1ccnc2ccc(OC)cc12
- IC50 (Plasmodium falciparum [1]): 12 to 207 nM

Structure (SMILES): C=C[C@H]1CN2CC[C@H]1C[C@H]2[C@H](OC(=O)[C@@H](NC(=O)c1cn(C2CC2)c2cc(N3CCN(CC)CC3)c(F)cc2c1=O)[C@@H](C)CC)c1ccnc2ccc(OC)cc12
- IC50 (Plasmodium falciparum [1]): 12 to 207 nM

Structure (SMILES): C=C[C@H]1CN2CC[C@H]1C[C@H]2[C@H](OC(=O)[C@H](C)NC(=O)c1cn2c3c(c(N4CCN(C)CC4)c(F)cc3c1=O)OC[C@@H]2C)c1ccnc2ccc(OC)cc12
- IC50 (Plasmodium falciparum [1]): 12 nM

Structure (SMILES): CN(CCNCC(O)c1cc(C(F)(F)F)nc2c(C(F)(F)F)cccc12)CC(O)c1cc(C(F)(F)F)nc2c(C(F)(F)F)cccc12 (stereo not drawn)
- half-life [2]: 13 h
- IC90 (Plasmodium falciparum [3]): 0.022 to 0.08 µg/mL (≈ 0.032 to 0.116 µM)
- Papp A→B [4]: 0.14 ×10⁻⁶ cm/s
- IC90 (Plasmodium falciparum [5]): 0.022 to 0.08 µg/mL (≈ 0.032 to 0.116 µM)
- Drug uptake [6]: 97 ng/g

Structure (SMILES): C=C[C@H]1CN2CC[C@H]1C[C@H]2[C@H](OC(=O)CNC(=O)c1cn2c3c(c(N4CCN(C)CC4)c(F)cc3c1=O)OC[C@@H]2C)c1ccnc2ccc(OC)cc12
- IC50 (Plasmodium falciparum [1]): 12 to 207 nM

Structure (SMILES): COc1ccccc1N1CCN(CC2CN(CCNc3ccnc4cc(Cl)ccc34)C(=O)O2)CC1 (stereo not drawn)
- IC50 (Plasmodium falciparum [7]): 62 to 430 nM
- IC50 (Plasmodium falciparum [8]): 62 to 430 nM

Structure (SMILES): C=C[C@H]1CN2CC[C@H]1C[C@H]2[C@H](OC(=O)[C@@H](CSCc1ccccc1)NC(=O)OCc1ccccc1)c1ccnc2ccc(OC)cc12
- IC50 (Plasmodium falciparum [9]): < 100 nM

Structure (SMILES): C=C[C@H]1CN2CC[C@H]1C[C@H]2[C@H](OC(=O)CNC(=O)OC(C)(C)C)c1ccnc2ccc(OC)cc12
- IC50 (Plasmodium falciparum [9]): < 100 nM

Structure (SMILES): C=C[C@H]1CN2CC[C@H]1C[C@H]2[C@H](OC(=O)[C@H](C)NC(=O)[C@H](Cc1ccccc1)NC(=O)CNC(=O)OCc1ccccc1)c1ccnc2ccc(OC)cc12
- IC50 (Plasmodium falciparum [9]): < 100 nM

Structure (SMILES): C=C[C@H]1CN2CC[C@H]1C[C@H]2[C@H](OC(=O)CNC(=O)c1cn(CC)c2nc(C)ccc2c1=O)c1ccnc2ccc(OC)cc12
- IC50 (Plasmodium falciparum [1]): 12 to 207 nM

Structure (SMILES): C=C[C@H]1CN2CC[C@H]1C[C@H]2[C@H](OC(=O)[C@H](COCc1ccccc1)NC(=O)OC(C)(C)C)c1ccnc2ccc(OC)cc12
- IC50 (Plasmodium falciparum [9]): < 100 nM

Structure (SMILES): O=C1OC(CN2CCN(c3ccccc3F)CC2)CN1CCCCNc1ccnc2cc(Cl)ccc12 (stereo not drawn)
- IC50 (Plasmodium falciparum [7]): 62 to 430 nM
- IC50 (Plasmodium falciparum [8]): 62 to 430 nM

Structure (SMILES): O=C1OC(CN2CCN(c3ccccc3F)CC2)CN1CCNc1ccnc2cc(Cl)ccc12 (stereo not drawn)
- IC50 (Plasmodium falciparum [7]): 62 to 430 nM
- IC50 (Plasmodium falciparum [8]): 62 to 430 nM

Structure (SMILES): COc1ccc(OCc2cn(CCNc3ccnc4cc(Cl)ccc34)nn2)cc1
- IC50 (Plasmodium falciparum [10]): 650 nM
- IC50 (Plasmodium falciparum [11]): 1120 nM

Structure (SMILES): C=C[C@H]1CN2CC[C@H]1C[C@H]2[C@H](OC(=O)[C@H](Cc1ccccc1)NC(=O)OC(C)(C)C)c1ccnc2ccc(OC)cc12
- IC50 (Plasmodium falciparum [9]): < 100 nM

Structure (SMILES): C=C[C@H]1CN2CC[C@H]1C[C@H]2[C@H](OC(=O)[C@H](CCC(=O)OCc1ccccc1)NC(=O)OC(C)(C)C)c1ccnc2ccc(OC)cc12
- IC50 (Plasmodium falciparum [9]): < 100 nM

Structure (SMILES): C=C[C@H]1CN2CC[C@H]1C[C@H]2[C@H](OC(=O)[C@H](CC(=O)OCc1ccccc1)NC(=O)OCc1ccccc1)c1ccnc2ccc(OC)cc12
- IC50 (Plasmodium falciparum [9]): 17 nM

Structure (SMILES): O=C1OC(CN2CCN(c3ccccc3Cl)CC2)CN1CCNc1ccnc2cc(Cl)ccc12 (stereo not drawn)
- IC50 (Plasmodium falciparum [7]): 62 to 430 nM
- IC50 (Plasmodium falciparum [8]): 62 to 430 nM

Structure (SMILES): CO[C@@]12OOC3(C=C1C[C@@H]1C=C[C@H]2C1)CCN(c1ccnc2cc(Cl)ccc12)CC3
- IC50 (Plasmodium falciparum [12]): 185 to 240 nM
- IC50 (Plasmodium falciparum [13]): 185 to 240 nM

Structure (SMILES): O=C1OC(CN2CCN(c3ccccc3)CC2)CN1CCNc1ccnc2cc(Cl)ccc12 (stereo not drawn)
- IC50 (Plasmodium falciparum [7]): 62 to 430 nM
- IC50 (Plasmodium falciparum [8]): 62 to 430 nM

Structure (SMILES): O[C@@]12OOC3(C=C1C[C@@H]1CC[C@H]2C1)CCN(c1ccnc2cc(Cl)ccc12)CC3
- IC50 (Plasmodium falciparum [12]): 1400 to 2450 nM
- IC50 (Plasmodium falciparum [13]): 1400 to 2450 nM

Structure (SMILES): CCN(CC)CCCC(C)Nc1cc(CCCCCCCCCCc2cc(NC(C)CCCN(CC)CC)c3ccccc3n2)nc2ccccc12 (stereo not drawn)
- IC50 (Plasmodium falciparum [14]): 43 nM

Structure (SMILES): O[C@@H](c1cc(C(F)(F)F)nc2c(C(F)(F)F)cccc12)[C@H]1CCCCN1 [(S,R)-MEFLOQUINE]
- half-life [2]: 23 h
- IC50 (Plasmodium falciparum [14]): 90 nM
- IC50 (Plasmodium falciparum [15]): 300 nM
- Drug uptake [6]: 1600 ng/g

Structure (SMILES): C[C@@H]1CC[C@H]2[C@@H](C)C(=O)O[C@@H]3O[C@@]4(C)CC[C@@H]1[C@]32OO4 [ARTEMISININ]
- IC50 (Plasmodium falciparum [13]): 19 nM

Structure (SMILES): CCN(CC)CCCC(C)Nc1ccnc2cc(Cl)ccc12 (stereo not drawn) [CHLOROQUINE]
- EC50 (Plasmodium falciparum [16]): 20 nM
- EC50 (Plasmodium falciparum [17]): 1030 nM

Structure (SMILES): C[C@H]1COc2c(N3CCN(C)CC3)c(F)cc3c(=O)c(C(=O)O)cn1c23 [LEVOFLOXACIN]
- IC50 (Plasmodium falciparum [1]): > 20000 nM

Structure (SMILES): C=C[C@H]1CN2CC[C@H]1C[C@H]2[C@H](O)c1ccnc2ccc(OC)cc12 [QUININE]
- IC50 (Plasmodium falciparum [9]): 18 nM
